The subject of data set [1] is Vero E6 cells.
Data set [2] has as its system SARS-CoV-2. Description: microbe, parasite or virus in culture. It counts as cell-based. The settings on record: Severe acute respiratory syndrome coronavirus 2, Vero C1008, 96 h.
Data set [3] in a line: in vitro. The settings on record: African green monkey.
Data set [4] concerns SARS-CoV-2. The data set is described as follows: microbe, parasite or virus in culture. It is filed as cell-based.
[5] abbreviates: CPE assay, percent cell protection, moi 0.05, 4 days, read-out: EC50.
Where [6] appears, read: Severe acute respiratory syndrome coronavirus 2, Vero C1008, Table 2, naproxen/ketotifen experiment.
[7] abbreviates: Table 2, column 50 μM (head: Concentration Naproxen).

SMILES strings stand for the structures. Like-named read-outs stand apart in the source and are kept apart here.

The EC50 is the midpoint of the concentration-response curve. What is called inhibition is how much of the control response was suppressed. For the molecule `COc1ccc2c(c1)c(CC(=O)O)c(C)n2C(=O)c1ccc(Cl)cc1` [Indomethacin, 2-{1-[(4-Chlorophenyl)-carbonyl]-5-methoxy-2-methyl-1H-indol-3-yl}acetic acid], the Percentage viability is 98% in data set [1] (concentration 0.39 μM); 106% in data set [1] (concentration 0.78 μM); 111% in data set [1] (concentration 1.56 μM); 117% in data set [1] (concentration 3.13 μM); 124% in data set [1] (concentration 6.25 μM); 124% in data set [1] (concentration 12.5 μM). The figures for the Percentage viability in data set [1] (concentration 25 μM), in data set [1] (concentration 50 μM) and in data set [1] (concentration 100 μM) were 125%, 143% and 143%, respectively. The EC50 in data set [2] (setting [5]) was over 400 µM; in data set [4] (Severe acute respiratory syndrome coronavirus 2, Vero C1008, Table 4, indomethacin titrated, alone or with fixed ketotifen), 100 µM. The molecule also displayed a CC50 in data set [3] of over 400 µM. The “inhibition of SARS-CoV-2 / viral yield (in words)” value in data set [4] is listed as “inhibited SARS-CoV-2”. Besides, in data set [4] (Severe acute respiratory syndrome coronavirus 2, Vero C1008, Table 4, Concentration Indomethacin 25 μM, read-out: percentage inhibition of SARS-CoV-2), the inhibition at 25 µM came to 0%. The inhibition at 50 µM in data set [4] (Severe acute respiratory syndrome coronavirus 2, Vero C1008, Table 4, Concentration Indomethacin 50 μM, read-out: percentage inhibition of SARS-CoV-2) amounted to 0%. Besides, in data set [4] (Severe acute respiratory syndrome coronavirus 2, Vero C1008, Table 4, Concentration Indomethacin 100 μM, read-out: percentage inhibition of SARS-CoV-2), the inhibition at 100 µM came to 50%.
With `CN1CCC(=C2c3ccccc3CC(=O)c3sccc32)CC1` [Ketotifen], the Percentage viability in data set [1] (concentration 0.20 μM) turned out to be 110%; in data set [1] (concentration 0.39 μM), 103%; in data set [1] (concentration 0.78 μM), 101%; in data set [1] (concentration 1.56 μM), 109%; in data set [1] (concentration 3.13 μM) it was 121%; in data set [1] (concentration 6.25 μM) it was 125%. In addition, the Percentage viability was 122% in data set [1] (concentration 12.5 μM), 104% in data set [1] (concentration 25 μM) and 86% in data set [1] (concentration 50 μM). For the same molecule, the EC50 in data set [2] was over 139 µM; in data set [4] (setting [6]), 48.9 µM; in data set [4] (Severe acute respiratory syndrome coronavirus 2, Vero C1008, Table 3, ketotifen titrated, alone or with fixed indomethacin), 47.1 µM. Further, the CC50 in data set [3] turned out to be 139 µM. Besides, the “inhibition of SARS-CoV-2 / viral yield (in words)” value in data set [4] was “inhibited SARS-CoV-2”. In data set [4] (Severe acute respiratory syndrome coronavirus 2, Vero C1008, Table 3, Concentration Ketotifen 6.25 μM, read-out: percentage inhibition of SARS-CoV-2), the inhibition at 6.25 µM was 0%. Moreover, the inhibition at 12.5 µM in data set [4] (Severe acute respiratory syndrome coronavirus 2, Vero C1008, Table 3, Concentration Ketotifen 12.5 μM, read-out: percentage inhibition of SARS-CoV-2) is 0%. In addition, the inhibition at 25 µM in data set [4] (Severe acute respiratory syndrome coronavirus 2, Vero C1008, Table 3, Concentration Ketotifen 25 μM, read-out: percentage inhibition of SARS-CoV-2) amounted to 0%. The inhibition at 50 µM in data set [4] (Severe acute respiratory syndrome coronavirus 2, Vero C1008, Table 3, Concentration Ketotifen 50 μM, read-out: percentage inhibition of SARS-CoV-2) came out at 60%. Further, the “percentage inhibition of SARS-CoV-2” value in data set [4] (setting [7]) is 68%.
As for `COc1ccc2cc(C(C)C(=O)O)ccc2c1` (stereo not drawn) [Naproxen, 6-methoxy-α-methyl-2-naphthaleneacetic acid], the EC50 in data set [2] (setting [5]) was over 400 µM; in data set [4] (setting [6]), over 100 µM. Besides, the “percentage inhibition of SARS-CoV-2” value in data set [4] (Table 2, column 6.25 μM (head: Concentration Naproxen)) was 0%; in data set [4] (Table 2, column 12.5 μM (head: Concentration Naproxen)), 21%; in data set [4] (Table 2, column 25 μM (head: Concentration Naproxen)), 0%; in data set [4] (setting [7]), 0%; in data set [4] (Table 2, column 100 μM (head: Concentration Naproxen)) it was 0%.
`CCC(CC)COC(=O)[C@H](C)N[P@](=O)(OC[C@H]1O[C@@](C#N)(c2ccc3c(N)ncnn23)[C@H](O)[C@@H]1O)Oc1ccccc1` [Remdesivir] came in with an EC50 in data set [2] of 2.9 µM.

Source of the values: patent US20240033259A1, “COMPOSITIONS AND METHODS FOR TREATING OR PREVENTING DISEASE ASSOCIATED WITH BETA CORONAVIRUS INFECTION” (priority 2020, published 2024).
